Each structure is given as a SMILES string. ≈ marks a conversion by molar mass, not a printed value. Where only a bound is given, the exact number is not on record here.

One data set concerns HSV-2 (NS and RV-194). The data set is described as follows: Virus yield reduction assay in HEL cells, HSV-2 clinical isolates. As to conditions: for EC90: Human alphaherpesvirus 2, HEL.
Data set [1] concerns PBMC. Put plainly: PBMC viability (trypan blue dye exclusion, flow cytometry). The data set is classed as cell-based, human. Particulars: 20, 100 and 500 µg/ml.
Data set [2] relates to PBMC. The data set is described as follows: Flow cytometry of activation markers on PBMC. Type of data set: cell-based, human. Particulars: 72 h exposure. On the procedure:
Figure 10 Expression of activation markers on PBMCs treated with adefovir, tenofovir, or PMEO-DAPym. PBMCs were incubated with adefovir, tenofovir, or PMEO-DAPym for 3 days. The mitogenic lectin PHA (at 2 µg/ml) was included as a positive control. We measured cell surface expression of CD4 and the activation markers CD69 (top panel), CD25 (middle panel), and HLA-DR (bottom panel) using flow cytometry with the […] CD4-specific mAb (clone SK3) and the phycoerythrin-labeled CD69, CD25, HLA-DR-specific mAbs. Shown are means ± SEM from two independent experiments.
PBMC were cultured in the presence of adefovir, tenofovir, and PMEO-DAPym and incubated at 37°C in a humidified, 5% CO2-controlled atmosphere. The expression of cellular activation markers was measured after 3 days of culture. […] Finally, the cells were washed with PBS, fixed with 1% formaldehyde solution, and analyzed with a FACSCalibur (BD Biosciences, San Jose, CA); data were acquired with CellQuest software and further analyzed with the FLOWJO software (Tree Star, San Carlos, CA). The expression of the chemokine receptors was measured after 24 h, and PBMC were incubated with PerCP-conjugated anti-CD4 mAb (clone SK3) in combination with APC-conjugated anti-CXCR4 mAb (clone 12G5) and PE-conjugated anti-CCR5 (clone 2D7) or anti-CXCR3 (clone 1C6). […]
(In general: In flow cytometry, cells or beads pass a laser one at a time.)

The subject of the next data set is HSV-2 (G). Set-up: method as in PMID 22018238. Particulars: tonsilar tissue; cited from earlier work.
A further data set deals with HSV. The arrangement: method as in PMID 20643915, PMID 20709216. As to conditions: CAPRISA trial; cited from earlier work.

Method for HSV-2 (NS and RV-194): These assays were carried out in HEL cell monolayers at different times post infection. […] After 2 h at 37°C, the cells were washed and medium containing different concentrations of PMEO-DAPym (in duplicate) was added. Following 24, 48, and 72 h of incubation, we released the viruses by freeze-thawing and then titrated them using a plaque assay in HEL cells.

The EC90 is the point of the concentration-response curve where the effect stands at 90%. A high value points to weaker potency. The EC99 is the concentration at which the effect reaches the 99% level. Higher therefore signals weaker potency. Take `Nc1cc(OCCOCP(=O)(O)O)nc(N)n1` [PMEO-DAPym, 6-phosphonylmethoxyethoxy-2,4-diaminopyrimidine]: the EC90 was under 1 µg/mL in the data set on HSV-2 (NS and RV-194) (24 h, Strain NS, moi = 1x10^-3, 24 hours); under 1 µg/mL with HSV-2 (NS and RV-194) (24 h, Strain NS, moi = 1x10^-4, 24 hours); 2.08 µg/mL (≈ 7.87 µM) in the data set on HSV-2 (NS and RV-194) (24 h, Strain RV-194, moi = 1x10^-3, 24 hours); under 1 µg/mL in the data set with HSV-2 (NS and RV-194) (24 h, Strain RV-194, moi = 1x10^-4, 24 hours); under 1 µg/mL in the data set on HSV-2 (NS and RV-194) (48 h, Strain NS, moi = 1x10^-3, 48 hours); under 1 µg/mL in the data set on HSV-2 (NS and RV-194) (48 h, Strain NS, moi = 1x10^-4, 48 hours). Further, the EC90 in the data set with HSV-2 (NS and RV-194) (48 h, Strain RV-194, moi = 1x10^-3, 48 hours) is under 1 µg/mL; in the data set on HSV-2 (NS and RV-194) (48 h, Strain RV-194, moi = 1x10^-4, 48 hours) it was under 1 µg/mL; in the data set with HSV-2 (NS and RV-194) (72 h, Strain NS, moi = 1x10^-3, 72 hours), 1.34 µg/mL (≈ 5.07 µM); in the data set on HSV-2 (NS and RV-194) (72 h, Strain NS, moi = 1x10^-4, 72 hours), under 1 µg/mL; with HSV-2 (NS and RV-194) (72 h, Strain RV-194, moi = 1x10^-3, 72 hours), 1 µg/mL (≈ 3.79 µM); in the data set on HSV-2 (NS and RV-194) (72 h, Strain RV-194, moi = 1x10^-4, 72 hours) it was under 1 µg/mL. Also, the EC99 with HSV-2 (NS and RV-194) (Strain NS, moi = 1x10^-3, 24 hours) turned out to be 3.0 µg/mL; with HSV-2 (NS and RV-194) (Strain NS, moi = 1x10^-3, 48 hours) it was 3.28 µg/mL; with HSV-2 (NS and RV-194) (Strain NS, moi = 1x10^-3, 72 hours) it was 3.63 µg/mL; in the data set with HSV-2 (NS and RV-194) (Strain NS, moi = 1x10^-4, 24 hours) it was 3.6 µg/mL; in the data set on HSV-2 (NS and RV-194) (Strain NS, moi = 1x10^-4, 48 hours), 1.0 µg/mL; with HSV-2 (NS and RV-194) (Strain NS, moi = 1x10^-4, 72 hours) it was 2.3 µg/mL. Besides, the EC99 with HSV-2 (NS and RV-194) (Strain RV-194, moi = 1x10^-3, 24 hours) was 7.15 µg/mL; in the data set on HSV-2 (NS and RV-194) (Strain RV-194, moi = 1x10^-3, 48 hours) it was 1.0 µg/mL; in the data set on HSV-2 (NS and RV-194) (Strain RV-194, moi = 1x10^-3, 72 hours), 3.58 µg/mL; in the data set on HSV-2 (NS and RV-194) (Strain RV-194, moi = 1x10^-4, 24 hours), under 1 µg/mL; in the data set with HSV-2 (NS and RV-194) (Strain RV-194, moi = 1x10^-4, 48 hours), 1.58 µg/mL; in the data set on HSV-2 (NS and RV-194) (Strain RV-194, moi = 1x10^-4, 72 hours), 2.62 µg/mL. Besides, in the data set on PBMC [1], the PBMC viability result is “did not affect PBMC viability”. In addition, in the data set with PBMC [2], the “upregulation of cell activation markers (HLA-DR, CD25, CD69 and others)” value is “none of the cell activation markers”.
Turning to `C[C@H](Cn1cnc2c(N)ncnc21)OCP(=O)(O)O` [Tenofovir, 9-(2-phosphonylmethoxypropyl)adenine], the “concentration that comparably inhibited HSV-2 replication” value in the data set on HSV-2 (G) was 240 µg/mL. In the data set with HSV, the “prevention of HSV infection” value is given as 51%.

Source of the values: paper PMC3723632, “A Multi-targeted Drug Candidate with Dual Anti-HIV and Anti-HSV Activity” (PLoS Pathogens, 2013).
